Assay results: patent publication US9434763B2, “Derivatives of pyridinone as inhibitors for tissue transglutaminase” (ZEDIRA GMBH, priority 2012, dated 2016)

Target: T1, His tagged recombinant human tissue transglutaminase (His6-rh-TG2) (Homo sapiens, UniProt P21980)
T1 construct: purchased Zedira T002
T1 sequence (P21980 1-687): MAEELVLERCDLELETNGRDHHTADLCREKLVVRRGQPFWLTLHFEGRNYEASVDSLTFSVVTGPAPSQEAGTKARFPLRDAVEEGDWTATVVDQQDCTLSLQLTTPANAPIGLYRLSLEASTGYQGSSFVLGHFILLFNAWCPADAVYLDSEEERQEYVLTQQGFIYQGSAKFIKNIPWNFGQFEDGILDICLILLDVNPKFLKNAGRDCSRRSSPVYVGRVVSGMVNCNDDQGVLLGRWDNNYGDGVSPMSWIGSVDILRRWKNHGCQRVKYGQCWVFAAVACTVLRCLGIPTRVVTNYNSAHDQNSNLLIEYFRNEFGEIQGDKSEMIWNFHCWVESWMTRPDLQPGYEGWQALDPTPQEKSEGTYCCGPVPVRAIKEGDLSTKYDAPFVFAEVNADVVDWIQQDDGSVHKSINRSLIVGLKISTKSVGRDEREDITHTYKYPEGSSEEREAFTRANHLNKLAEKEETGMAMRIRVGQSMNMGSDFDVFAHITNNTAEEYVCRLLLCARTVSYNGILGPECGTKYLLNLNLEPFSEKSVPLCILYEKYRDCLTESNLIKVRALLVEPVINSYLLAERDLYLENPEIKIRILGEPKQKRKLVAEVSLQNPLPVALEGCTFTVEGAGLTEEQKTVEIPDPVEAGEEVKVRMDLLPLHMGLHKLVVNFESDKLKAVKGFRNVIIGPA
Experiment: Inactivation of human tissue transglutaminase, fluorescence assay with Abz-APE(CAD-DNP)QEA-OH
Format: biochemical
Settings: substrate Abz-APE(CAD-DNP)QEA-OH, 37° C., pH=7.5
Experimental: General Method for Inactivation of Human Tissue Transglutaminase
250 μg lyophilized His tagged recombinant human tissue transglutaminase (His6-rh-TG2, Zedira product T002) are reconstituted by adding 150 μl water (resulting buffer 50 mM NaH2PO4, 150 mM NaCl, pH=8.0).
A 10 mM inhibitor stock solution in DMSO is prepared and is diluted with buffer (50 mM Tris-HCl, 10 mM CaCl2, 5 mM DTT, pH=7.5) each to the twentyfold of the concentration desired in the preparation (but at least 1/50 dilution resulting in a 2% DMSO concentration).
900 μl of an assay-solution consisting of 55.56 mM Tris, 11.11 mM CaCl2, 0.11% PEG8000, 5.56 mM DTT, 5.56 mM glycine methyl ester and 50 μM Abz-APE(CAD-DNP)QEA-OH, (Zedira product A102; patent No.: EP 1781807B1), pH=7.5 are added to a cuvette and heated in a measuring cell of a spectrophotometer to 37° C. 50 μl of the particular inhibitor solution are added to this solution (resulting in a concentration of less than 0.2% DMSO in the mixture).
7 μl of the transglutaminase solution reconstituted above are diluted with 51 μl buffer (50 mM Tris, 100 mM NaCl, 5 mM DTT, pH=7.5). 50 μl of this enzyme solution (10 μg His6-rhTG2) are added to the assay-solution containing the particular inhibitor concentration. It is incubated 5 min at 37° C. before measuring starts (λexc=313 nm and λem=418 nm, t=15 to 30 min).
The evaluation of the resulting enzyme activity is done using the slope of the straight line obtained by the increase in fluorescence.
To determine the non-inhibited enzyme activity, DMSO instead of inhibitor stock solution is used. IC50 values are determined by plotting the resulting enzyme activity against the logarithm of the inhibitor concentration. IC50 is defined as the concentration of inhibitor resulting in 50% of enzyme activity.

SMILES	IC50 [nM]
CCOC(=O)/C=C/CC[C@H](NC(=O)CCC(=O)O)C(=O)Nc1cccn(CC(=O)NCC(C)CC)c1=O (stereo partly drawn) [A51, 4-((2S,E)-7-Ethoxy-1-(1-(2-(2-methylbutylamino)-2-oxoethyl)-2-oxo-1,2-dihydropyridin-3-ylamino)-1,7-dioxohept-5-en-2-ylamino)-4-oxobutanoic acid]	166
CCC(CC)CNC(=O)Cn1cccc(NC(=O)[C@@H](CC/C=C/C(=O)OC)NC(=O)c2cncn2C)c1=O [A76, (R,E)-Methyl 7-(1-(2-(2-ethylbutylamino)-2-oxoethyl)-2-oxo-1,2-dihydropyridin-3-ylamino)-6-(1-methyl-1H-imidazole-5-carboxamido)-7-oxohept-2-enoate]	54700
CCOC(=O)/C=C/CC[C@H](NC(=O)CCC(=O)O)C(=O)Nc1cccn(CC(=O)NCCc2cccs2)c1=O [A47, (S,E)-4-(7-Ethoxy-1,7-dioxo-1-(2-oxo-1-(2-oxo-2-(2-(thiophen-2-yl)ethylamino)ethyl)-1,2-dihydropyridin-3-ylamino)hept-5-en-2-ylamino)-4-oxobutanoic acid]	480
CCOC(=O)/C=C/CC[C@H](NC(C)=O)C(=O)Nc1cccn(CC(=O)N[C@@H](CC(C)C)C(=O)OC)c1=O [A31, (S,E)-Ethyl 6-acetamido-7-(1-(2-((S)-1-methoxy-4-methyl-1-oxopentan-2-ylamino)-2-oxoethyl)-2-oxo-1,2-dihydropyridin-3-ylamino)-7-oxohept-2-enoate]	124
CCOC(=O)/C=C/CC[C@H](NS(=O)(=O)Cc1ccc(Cl)cc1)C(=O)Nc1cccn(CC(=O)NCCC(C)C)c1=O [A9, (S,E)-ethyl 6-((4-chlorophenyl)methylsulfonamido)-7-(1-(2-(isopentylamino)-2-oxoethyl)-2-oxo-1,2-dihydropyridin-3-ylamino)-7-oxohept-2-enoate]	708
CC(=O)N[C@@H](CC/C=C/C(=O)OCc1ccccc1)C(=O)Nc1cccn(CC(=O)NCCC(C)C)c1=O [A78, (S,E)-Benzyl 6-acetamido-7-(1-(2-(isopentylamino)-2-oxoethyl)-2-oxo-1,2-dihydropyridin-3-ylamino)-7-oxohept-2-enoate]	627
CCOC(=O)/C=C/CC[C@H](NC(=O)c1ccoc1)C(=O)Nc1cccn(CC(=O)NCCC(C)C)c1=O [A11, (S,E)-Ethyl 6-(furan-3-carboxamido)-7-(1-(2-(isopentylamino)-2-oxoethyl)-2-oxo-1,2-dihydropyridin-3-ylamino)-7-oxohept-2-enoate]	104
CCOC(=O)/C=C/CC[C@H](NC(=O)CCC(=O)O)C(=O)Nc1cccn(CC(=O)NCCC(CC)CC)c1=O [A43, (S,E)-4-(7-Ethoxy-1-(1-(2-(3-ethylpentylamino)-2-oxoethyl)-2-oxo-1,2-dihydropyridin-3-ylamino)-1,7-dioxohept-5-en-2-ylamino)-4-oxobutanoic acid]	145
CCOC(=O)/C=C/CC[C@H](NC(=O)c1ccccc1)C(=O)Nc1cccn(CC(=O)NCCC(C)C)c1=O [A10, (S,E)-Ethyl 6-benzamido-7-(1-(2-(isopentylamino)-2-oxoethyl)-2-oxo-1,2-dihydropyridin-3-ylamino)-7-oxohept-2-enoate]	73

Continued by falling IC50, values first:

IC50 [nM]	SMILES
5400	CCOC(=O)/C=C/CC[C@H](NC(=O)CCC(=O)O)C(=O)Nc1cccn(CC(=O)NCCN(CC)CC)c1=O [A26, (S,E)-4-(1-(1-(2-(2-(Diethylamino)ethylamino)-2-oxoethyl)-2-oxo-1,2-dihydropyridin-3-ylamino)-7-ethoxy-1,7-dioxohept-5-en-2-ylamino)-4-oxobutanoic acid]
5200	CCOC(=O)/C=C/CC[C@H](NC(C)=O)C(=O)Nc1cccn(CC(=O)NCCN(C)C)c1=O [A27, (S,E)-Ethyl 6-acetamido-7-(1-(2-(2-(dimethylamino)ethylamino)-2-oxoethyl)-2-oxo-1,2-dihydropyridin-3-ylamino)-7-oxohept-2-enoate]
700	CCOC(=O)/C=C/CC[C@H](NC(C)=O)C(=O)Nc1cccn(CC(=O)N2CCCC(C)C2)c1=O (stereo partly drawn) [A52, (6S,E)-Ethyl 6-acetamido-7-(1-(2-(3-methylpiperidin-1-yl)-2-oxoethyl)-2-oxo-1,2-dihydropyridin-3-ylamino)-7-oxohept-2-enoate]
640	CCOC(=O)/C=C/CC[C@H](NC(=O)CCC(=O)O)C(=O)Nc1cccn(CC(=O)N[C@H](CC(C)C)C(=O)OC)c1=O [A34, 4-((S,E)-7-Ethoxy-1-(1-(2-((R)-1-methoxy-4-methyl-1-oxopentan-2-ylamino)-2-oxoethyl)-2-oxo-1,2-dihydropyridin-3-ylamino)-1,7-dioxohept-5-en-2-ylamino)-4-oxobutanoic acid]
532	CC(=O)N[C@@H](CC/C=C/C(=O)OC(C)C)C(=O)Nc1cccn(CC(=O)NCCC(C)C)c1=O [A6, (S,E)-isopropyl 6-acetamido-7-(1-(2-(isopentylamino)-2-oxoethyl)-2-oxo-1,2-dihydropyridin-3-ylamino)-7-oxohept-2-enoate]
493	CCOC(=O)/C=C/CC[C@H](NC(C)=O)C(=O)Nc1cccn(CC(=O)N[C@H](CC(C)C)C(=O)OC)c1=O [A33, (S,E)-Ethyl 6-acetamido-7-(1-(2-((R)-1-methoxy-4-methyl-1-oxopentan-2-ylamino)-2-oxoethyl)-2-oxo-1,2-dihydropyridin-3-ylamino)-7-oxohept-2-enoate]
340	CCOC(=O)/C=C/CC[C@H](NC(=O)CCC(=O)O)C(=O)Nc1cccn(CC(=O)NCc2ccc(C(F)(F)F)cc2)c1=O [A37, (S,E)-4-(7-Ethoxy-1,7-dioxo-1-(2-oxo-1-(2-oxo-2-(4-(trifluoromethyl)benzylamino)ethyl)-1,2-dihydropyridin-3-ylamino)hept-5-en-2-ylamino)-4-oxobutanoic acid]
119	CCOC(=O)/C=C/CC[C@H](NC(C)=O)C(=O)Nc1cccn(CC(=O)NCC(C)CC)c1=O (stereo partly drawn) [A50, (6S,E)-Ethyl 6-acetamido-7-(1-(2-(2-methylbutylamino)-2-oxoethyl)-2-oxo-1,2-dihydropyridin-3-ylamino)-7-oxohept-2-enoate]
115	CCOC(=O)/C=C/CC[C@H](NC(C)=O)C(=O)Nc1cccn(CC(=O)NCCC(C)(C)C)c1=O [A39, (S,E)-Ethyl 6-acetamido-7-(1-(2-(3,3-dimethylbutylamino)-2-oxoethyl)-2-oxo-1,2-dihydropyridin-3-ylamino)-7-oxohept-2-enoate]
97	CCC(CC)CNC(=O)Cn1cccc(NC(=O)[C@H](CC/C=C/C(=O)OC)NC(=O)c2ccc3c(c2)C(=O)OC32c3ccc(N(C)C)cc3Oc3cc(N(C)C)ccc32)c1=O [A71, (S,E)-Methyl 6-(3′,6′-bis(dimethylamino)-3-oxo-3H-spiro[isobenzofuran-1,9′-xanthene]-5-ylcarboxamido)-7-(1-(2-(2-ethylbutylamino)-2-oxoethyl)-2-oxo-1,2-dihydropyridin-3-ylamino)-7-oxohept-2-enoate]
96	CCOC(=O)/C=C/CC[C@H](NC(=O)OCc1ccccc1)C(=O)Nc1cccn(CC(=O)NCCC(C)C)c1=O [A3, (S,E)-Ethyl 6-(benzyloxycarbonylamino)-7-(1-(2-(isopentylamino)-2-oxoethyl)-2-oxo-1,2-dihydropyridin-3-ylamino)-7-oxohept-2-enoate]
92	CCOC(=O)/C=C/CC[C@H](NC(=O)c1ncsc1C)C(=O)Nc1cccn(CC(=O)NCCC(C)C)c1=O [A15, (S,E)-Ethyl 7-(1-(2-(isopentylamino)-2-oxoethyl)-2-oxo-1,2-dihydropyridin-3-ylamino)-6-(5-methylthiazole-4-carboxamido)-7-oxohept-2-enoate]
84	CCOC(=O)/C=C/CC[C@H](NC(C)=O)C(=O)Nc1cccn(CC(=O)N[C@H](C(=O)OC)C(C)C)c1=O [A57, (S,E)-Ethyl 6-acetamido-7-(1-(2-((S)-1-methoxy-3-methyl-1-oxobutan-2-ylamino)-2-oxoethyl)-2-oxo-1,2-dihydropyridin-3-ylamino)-7-oxohept-2-enoate]
